Experiments:
[1] = molecular target: T1, 3-keto-steroid reductase/17-beta-hydroxysteroid dehydrogenase 7 (Homo sapiens) (UniProt P56937); details: HEK293, at 0.3 µM
T1 sequence (whole entry): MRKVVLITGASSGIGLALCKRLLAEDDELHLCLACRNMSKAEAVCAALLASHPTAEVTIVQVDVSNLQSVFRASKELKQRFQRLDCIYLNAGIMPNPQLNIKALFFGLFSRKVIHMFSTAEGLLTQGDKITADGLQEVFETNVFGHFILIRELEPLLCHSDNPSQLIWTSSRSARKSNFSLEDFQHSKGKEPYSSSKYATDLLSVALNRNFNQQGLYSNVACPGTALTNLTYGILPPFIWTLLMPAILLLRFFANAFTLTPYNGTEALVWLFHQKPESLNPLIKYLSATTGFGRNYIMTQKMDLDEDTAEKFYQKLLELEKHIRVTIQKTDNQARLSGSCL
Description: Inhibition of human 17beta-HSD7 expressed in HEK293 cells assessed as inhibition of reduction of [14C]estrone into [14C]estradiol at 0.3 uM after 7 hrs

[2] = molecular target: T1, 3-keto-steroid reductase/17-beta-hydroxysteroid dehydrogenase 7 (Homo sapiens); details: HEK293, at 3 µM
Description: Inhibition of human 17beta-HSD7 expressed in HEK293 cells assessed as inhibition of reduction of [14C]estrone into [14C]estradiol at 3 uM after 7 hrs

| SMILES | inhibition [1] [%] | inhibition [2] [%] |
| --- | --- | --- |
| CC/C(=C(\c1ccccc1)c1ccc(OCCN(C)C)cc1)c1ccccc1 | 8.9 | 3.2 |
| CC1=C(c2ccc(OC(=O)C(C)(C)C)cc2)[C@H](c2ccc(OCCN3CCCCC3)cc2)Oc2cc(OC(=O)C(C)(C)C)ccc21 | 0 | 0 |
| C[C@]12CC[C@H](O)CC1=CC[C@@H]1[C@@H]2CC[C@]2(C)C(=O)CC[C@@H]12 | 5.7 | 12.1 |
| CC1(C)CC[C@@]2(CC[C@H]3[C@@H]4CCC5CC(=O)CC[C@]5(C)[C@H]4CC[C@@]32C)OC1=O (stereo partly drawn) | 2.2 | 26.4 |
| CN1C(=O)CC[C@]2(C)[C@H]3CC[C@]4(C)[C@@H](NC(=O)C(C)(C)C)CC[C@H]4[C@@H]3CC[C@@H]12 | 13.5 | 55.9 |
| CC1(C)CC[C@@]2(CC[C@H]3[C@@H]4CCc5cc(OP(=O)(O)O)ccc5[C@H]4CC[C@@]32C)OC1=O | 0 | 16.5 |
| CC1(C)CC[C@@]2(CC[C@H]3[C@@H]4CCc5cc(C(N)=O)ccc5[C@H]4CC[C@@]32C)OC1=O | 11.6 | 27 |
| O=C(c1ccc(OCN2CCCCC2)cc1)c1c(-c2ccc(O)cc2)sc2cc(O)ccc12 | 0 | 0 |
| CN(C)C(=O)c1ccc2c(c1)CC[C@@H]1[C@@H]2CC[C@@]2(C)[C@H]1CC[C@@]21CCC(C)(C)C(=O)O1 | 15.2 | 36.1 |
| C[C@]12CCC(=O)C(O)=C1CC[C@@H]1[C@@H]2CC[C@]2(C)C(=O)CC[C@@H]12 | 8.1 | 7.1 |
| CC(C)(C)NC(=O)[C@H]1CC[C@H]2[C@@H]3CC=C4C=C(Cl)CC[C@]4(C)[C@H]3CC[C@]12C | 13.4 | 56.8 |
| CCC1(CC)CC[C@@]2(CC[C@H]3[C@@H]4CCc5cc(O)ccc5[C@H]4CC[C@@]32C)OC1=O | 15.2 | 39.6 |
| O=c1oc2cc(O)ccc2c2oc3cc(O)ccc3c12 | 5.5 | 2.3 |
| CCCC1CC[C@@]2(CC[C@H]3[C@@H]4CCc5cc(O)ccc5[C@H]4CC[C@@]32C)OC1=O (stereo partly drawn) | 15.8 | 47.1 |
| CN1C(=O)CC[C@]2(C)[C@H]3CC[C@]4(C)[C@@H](N(C=O)Cc5ccccc5)CC[C@H]4[C@@H]3CC[C@@H]12 | 31.6 | 77.6 |
| CC(=O)S[C@@H]1CC2=CC(=O)CC[C@]2(C)[C@H]2CC[C@@]3(C)[C@@H](CC[C@@]34CCC(=O)O4)[C@H]12 | 7.2 | 7.5 |
| CN1C(=O)CC[C@]2(C)[C@H]3CC[C@]4(C)[C@@H](N(C=O)C5CCCCC5)CC[C@H]4[C@@H]3CC[C@@H]12 | 23.9 | 75.2 |
| COc1cc2c(cc1S(N)(=O)=O)CC[C@@H]1[C@@H]2CC[C@]2(C)C(=O)CC[C@@H]12 | 6.4 | 10.3 |
| C[C@]12CC[C@@]3(C[C@H]1CC[C@@H]1[C@@H]2CC[C@]2(C)C(=O)CC[C@@H]12)CN(CC(CN1CCOCC1)OC(=O)CCC1CCCC1)C(=O)O3 (stereo partly drawn) | 18.9 | 8.7 |
| CCCCN(C)C(=O)C[C@@H]1Cc2cc(O)ccc2[C@H]2CC[C@@]3(C)[C@@H](CC[C@@]34CCC(=O)O4)[C@H]12 | 17.1 | 15.5 |

| SMILES | inhibition [1] [%] | inhibition [2] [%] |
| --- | --- | --- |
| C[C@]12CCC(=O)C=C1CC[C@@H]1[C@@H]2[C@@H](O)C[C@]2(C=O)[C@@H](C(=O)CO)CC[C@@H]12 | 14.4 | 7.3 |
| C[C@]12CC[C@](O)(Cc3ccccc3)C[C@@H]1CC[C@@H]1[C@@H]2CC[C@]2(C)C(=O)CC[C@@H]12 | 19.3 | 22.2 |
| C[C@]12CC[C@@H](O)C[C@@H]1CC[C@@H]1[C@@H]2CC[C@]2(C)[C@@H](O)CC[C@@H]12 | 1.1 | 8.4 |
| CC1(C)CC[C@@]2(CC[C@H]3[C@@H]4CCc5cc(OS(=O)(=O)c6ccccc6)ccc5[C@H]4CC[C@@]32C)OC1=O | 11.7 | 29.5 |
| CN1C(=O)CC[C@]2(C)[C@H]3CC[C@]4(C)[C@@H](N5CCCC5=O)CC[C@H]4[C@@H]3CC[C@@H]12 | 15.3 | 15.1 |
| COC(=O)c1cc2c(cc1O)CC[C@@H]1[C@@H]2CC[C@@]2(C)[C@H]1CC[C@@]21CCC(C)(C)C(=O)O1 | 21.1 | 30 |
| C[C@]12CC[C@@H]3c4ccc(O)cc4CC[C@H]3[C@@H]1C[C@@H](CCBr)[C@@H]2O | 5.8 | 4.5 |
| CC1(C)CC[C@@]2(CC[C@H]3[C@@H]4CCc5cc(C#N)ccc5[C@H]4CC[C@@]32C)OC1=O | 23.8 | 34.6 |
| C[C@]12CC[C@H]3C(=CCc4cc(O)ccc43)[C@@H]1CC[C@@H]2O | 12.6 | 8.8 |
| CC1(C)CC[C@@]2(CC[C@H]3[C@@H]4CCc5cc(O)c(I)cc5[C@H]4CC[C@@]32C)OC1=O | 10 | 24.9 |
| CCCNC(=O)N(C)[C@H]1CC[C@H]2[C@@H]3CC[C@H]4N(C)C(=O)CC[C@]4(C)[C@H]3CC[C@]12C | 2.7 | 2.2 |
| CN1C(=O)CC[C@]2(C)[C@H]3CC[C@]4(C)[C@@H](Nc5ccc([N+](=O)[O-])c(C(F)(F)F)c5)CC[C@H]4[C@@H]3CC[C@@H]12 | 66.1 | 100 |
| C[C@]12CCC(=O)C=C1CC[C@@H]1[C@@H]2CC[C@@]2(C)[C@H]1CC[C@]2(O)C(=O)CO | 9.8 | 0 |
| COc1cc2c(cc1O)CC[C@@H]1[C@@H]2CC[C@]2(C)C(=O)CC[C@@H]12 | 18.4 | 13.4 |
| CC(C)(C)NC(=O)[C@H]1CC[C@H]2[C@@H]3CC[C@H]4NC(=O)C=C[C@]4(C)[C@H]3CC[C@]12C | 3.7 | 5.4 |
| COCCOc1ccc2c(c1)CC[C@@H]1[C@@H]2CC[C@@]2(C)[C@H]1CC[C@@]21CCC(C)(C)C(=O)O1 | 23.8 | 52.3 |
| CC1=C(c2ccc(O)cc2)[C@H](c2ccc(OCCN3CCCCC3)cc2)Oc2cc(O)ccc21 | 3.1 | 4.2 |
| CC(=O)C1CC[C@@]2(CC[C@H]3[C@@H]4CCc5cc(O)ccc5[C@H]4CC[C@@]32C)OC1=O (stereo partly drawn) | 2.1 | 14.8 |
| CN1C(=O)CC[C@]2(C)[C@H]3CC[C@]4(C)[C@@H](N(C(=O)c5ccccc5)c5ccccc5)CC[C@H]4[C@@H]3CC[C@@H]12 | 31.9 | 64.1 |
| CN1C(=O)CC[C@]2(C)[C@H]3CC[C@]4(C)[C@@H](Nc5ccc([N+](=O)[O-])cc5)CC[C@H]4[C@@H]3CC[C@@H]12 | 40.9 | 88 |

| SMILES | inhibition [1] [%] | inhibition [2] [%] |
| --- | --- | --- |
| CC1(C)CC[C@@]2(CC[C@H]3[C@@H]4CCc5cc(C(=O)O)ccc5[C@H]4CC[C@@]32C)OC1=O | 28.1 | 20.9 |
| CCOc1ccc2c(c1)CC[C@@H]1[C@@H]2CC[C@@]2(C)[C@H]1CC[C@@]21CCC(C)(C)C(=O)O1 | 20.6 | 29.3 |
| CCCCCNC(=O)[C@H]1CC[C@H]2[C@@H]3CC[C@H]4N(C)C(=O)CC[C@]4(C)[C@H]3CC[C@]12C | 52.7 | 96.3 |
| C=CC[C@@]1(O)CC[C@H]2[C@@H]3CC[C@H]4N(C)C(=O)CC[C@]4(C)[C@H]3CC[C@@]21C | 13.3 | 4.9 |
| COC(=O)c1ccc2c(c1)CC[C@@H]1[C@@H]2CC[C@@]2(C)[C@H]1CC[C@@]21CCC(C)(C)C(=O)O1 | 15.1 | 49 |
| CN1C(=S)CC[C@]2(C)[C@H]3CC[C@@]4(C)[C@@H](CC[C@@]45CCCC(=S)O5)[C@@H]3CC[C@@H]12 | 5.3 | 36.5 |
| C#C[C@]1(O)CC[C@H]2[C@@H]3CCc4cc(O)ccc4[C@H]3CC[C@@]21C | 8.3 | 3.4 |
| CCCNC(=O)N(C1CC1)[C@H]1CC[C@H]2[C@@H]3CC[C@H]4N(C)C(=O)CC[C@]4(C)[C@H]3CC[C@]12C | 12.9 | 41.5 |
| CN1C(=O)CC[C@]2(C)[C@H]3CC[C@@]4(C)[C@@H](CC[C@@]4(O)C#CC(C)(C)I)[C@@H]3CC[C@@H]12 | 20.2 | 72 |
| CN1C(=O)CC[C@]2(C)[C@H]3CC[C@]4(C)[C@@H](N(C=O)C5CC5)CC[C@H]4[C@@H]3CC[C@@H]12 | 17.6 | 41.2 |
| C[C@]12CC[C@](O)(CCc3ccccc3)C[C@@H]1CC[C@@H]1[C@@H]2CC[C@]2(C)C(=O)CC[C@@H]12 | 0 | 17.4 |
| COc1cc2c(cc1S(N)(=O)=O)CC[C@@H]1[C@@H]2CC[C@@]2(C)[C@H]1CCC2(O)Cc1ccc(C(C)(C)C)cc1 (stereo partly drawn) | 0 | 6.4 |
| CC1(C)C[C@@]2(CC[C@H]3[C@@H]4CCc5cc(O)ccc5[C@H]4CC[C@@]32C)OC1=O | 14.5 | 42.4 |
| CC1(C)CC[C@@]2(CC[C@H]3[C@@H]4CCc5cc(O)c(C(N)=O)cc5[C@H]4CC[C@@]32C)OC1=O | 7.9 | 23.8 |
| CC(C)(C#N)c1cc(Cn2cncn2)cc(C(C)(C)C#N)c1 | 6.5 | 0.3 |
| CCCCCN(C=O)[C@H]1CC[C@H]2[C@@H]3CC[C@H]4NC(=O)CC[C@]4(C)[C@H]3CC[C@]12C | 35.2 | 89.1 |
| C[C@]12CC[C@H]3[C@@H](CCC4=CC(=O)CC[C@@]43C)[C@@H]1CC[C@@H]2C(=O)CO | 11.2 | 11.9 |
| C[C@]12CC[C@@H]3c4ccc(O)cc4CC[C@H]3[C@@H]1CC[C@@]21CCCC(=O)O1 | 0 | 13.8 |
| CC1(C)CC[C@@]2(CC[C@H]3[C@@H]4CCc5cc(C(N)=S)ccc5[C@H]4CC[C@@]32C)OC1=O | 18.5 | 60.9 |

From ChEMBL document CHEMBL1154295, “Potent and selective steroidal inhibitors of 17beta-hydroxysteroid dehydrogenase type 7, an enzyme that catalyzes the reduction of the key hormones estrone and dihydrotestosterone” (J Med Chem, 2009)
